From patent US20250057791A1, “PROTECTION AGAINST ARTHROPOD PARASITES WITH PURINERGIC RECEPTOR (OPR) ANTAGONISTS” (priority 2021, published 2025) come the findings set out here.

“And” between values parts separate entries of the source, which are not always exact repeats. Equal values may be shown once.

The assay concerns A. gambiae labellum ATP-sensitive receptor. Description: Effects of metal ions on electrophysiological responses to ATP. Type of assay: cell-based, Anopheles gambiae. The method, then:
The tip recording method was used to record action potentials (spikes) from sensory cells in sensilla on A. gambiae labellum lobes.
Sensilla were exposed to test compounds and PR antagonists for ca. 2-4 s and spikes were counted in the first 2 s of recordings. Up to 4 test compounds were tested on a sensillum to evaluate potential agonists, each presented at 200 pM. To study responses as a function of dose for agonists ATP, adenosine, AMP, AMP-CPP and ATP+adenosine, up to 7 recordings were made at increasing doses of agonist from the same sensillum. […]
Pairwise comparisons of A. gambiae electrophysiological (EP) responses to ATP and adenosine alone and combined with a given dose of PR antagonist, EP responses to ATP alone and combined with a given dose of a metal modulator, and EP responses to ATP prior to and after exposure of a sensillum to a given dose of a PR antagonist were made with a one-tailed Wilcoxon signed-rank test for data showing a non-normal distribution, with a paired Student's t-test for normally distributed data showing homogeneous variance and with a Welch's t-test for normally distributed data showing non-homogeneous variance. […] Percent feeding inhibition induced by PR antagonists in A. stephensi was calculated using Abbott's formula.

For `Nc1ncnc2c1ncn2[C@@H]1O[C@H](COP(=O)(O)OP(=O)(O)OP(=O)(O)O)[C@@H](O)[C@H]1O` [ATP, Adenosine 5′-triphosphate], the “Mean no. of spikes per 2 s (±s.e.m.)” value (100 pM ATP alone) was 3 ± 1.67 spikes per 2 s; the “Mean no. of spikes per 2 s (±s.e.m.)” value (200 pM ATP alone) is 24.8 ± 4.84 spikes per 2 s and 28.12 ± 3.5 spikes per 2 s.
